Reference: patent US4448775A, “3-Carbamoyloxymethylcephem derivatives, and antibacterial drugs containing same” (Eisai Co., Ltd., priority 1981, dated 1984)
Values after ≈ are worked out from the molar mass of the structure shown.

What was measured:
Escherichia coli NIHJ = assay: Minimal inhibitory concentration, standard agar dilution method of the Japan Society of Chemotherapy; format: cell-based
Procedure: (§1) Minimal inhibitory concentration (MIC, μg/ml) of certain compounds obtained in the above examples was determined in accordance with the standard agar dilution method of the Japan Society of Chemotherapy.

[1] = tested on: Klebsiella pneumoniae EK-6; assay: as above; format: cell-based; conditions: EK6
Procedure: as §1

Proteus morganii EP-14 = assay: as above; format: cell-based; conditions: Morganella morganii, EP14
Procedure: as §1

Proteus vulgaris E-18 = assay: as above; format: cell-based; conditions: E18, Proteus vulgaris E-18, lactamase-producing bacterium
Procedure: as §1

[2] = tested on: Pseudomonas aeruginosa EP-174; assay: as above; format: cell-based; conditions: EP174
Procedure: as §1

[3] = tested on: Serratia marcescens ES-75; assay: as above; format: cell-based; conditions: ES75
Procedure: as §1

[4] = tested on: Staphylococcus aureus 209-P; assay: as above; format: cell-based
Procedure: as §1

[5] = Acute toxicity, LD50 (mouse, oral administration); conditions: in vivo
From the text: With reference to the compounds of Example Nos. 2, 3 and 4, all their acute toxicity values [LD50 (mouse, oral administration)] amount to above 4 g/kg.

| SMILES | MIC (Escherichia coli NIHJ) | MIC [1] | MIC (Proteus morganii EP-14) | MIC (Proteus vulgaris E-18) | MIC [2] | MIC [3] | MIC [4] | LD50 [5] |
| --- | --- | --- | --- | --- | --- | --- | --- | --- |
| NC(=O)OCC1=C(C(=O)O)N2C(=O)[C@@H](NC(=O)[C@H](NC(=O)c3coc4cc(O)c(O)cc4c3=O)c3ccc(O)cc3)[C@H]2SC1 [Example 2, 7β-[D-2-(6,7-Dihydroxychromon-3-carboxamido)-2-(4-hydroxyphenyl)acetamido]-3-carbamoyloxymethyl-3-cephem-4-carboxylic acid] | 0.8 µg/mL (≈ 1.28 µM) | ≤ 0.05 µg/mL | 25 µg/mL (≈ 39.9 µM) | > 100 µg/mL | 0.4 µg/mL (≈ 0.638 µM) | 0.8 µg/mL (≈ 1.28 µM) | 3.13 µg/mL (≈ 5 µM) | > 4000 mg/kg |
| CO[C@@]1(NC(=O)[C@H](NC(=O)c2coc3cc(O)c(O)cc3c2=O)c2ccc(O)cc2)C(=O)N2C(C(=O)O)=C(COC(=O)NC(=O)C(Cl)(Cl)Cl)CS[C@@H]21 [Example 3, 7β-[D-2-(6,7-Dihydroxychromon-3-carboxamido)-2-(4-hydroxyphenyl)acetamido]-7α-methoxy-3-trichloroacetylcarbamoyloxymethyl-3-cephem-4-carboxylic acid] | 3.13 µg/mL (≈ 3.9 µM) | ≤ 0.05 µg/mL | 12.5 µg/mL (≈ 15.6 µM) | 3.13 µg/mL (≈ 3.9 µM) | 3.13 µg/mL (≈ 3.9 µM) | 1.56 µg/mL (≈ 1.95 µM) | 6.25 µg/mL (≈ 7.79 µM) | > 4000 mg/kg |
| CO[C@@]1(NC(=O)[C@H](NC(=O)c2coc3cc(O)c(O)cc3c2=O)c2ccc(O)cc2)C(=O)N2C(C(=O)O)=C(COC(N)=O)CS[C@@H]21 [Example 4, 7β-[D-2-(6,7-Dihydroxychromon-3-carboxamido)-2-(4-hydroxyphenyl)acetamido]-7α-methoxy-3-carbamoyloxymethyl-3-cephem-4-carboxylic acid] | 1.56 µg/mL (≈ 2.38 µM) | ≤ 0.05 µg/mL | 6.25 µg/mL (≈ 9.52 µM) | 0.8 µg/mL (≈ 1.22 µM) | 1.56 µg/mL (≈ 2.38 µM) | 0.4 µg/mL (≈ 0.609 µM) | 6.25 µg/mL (≈ 9.52 µM) | > 4000 mg/kg |
